Experimental data taken from patent US6071919A, “Zwitterionic compositions and methods as biological response modifiers” (priority 1998, dated 2000).

Legend:
cancer tumors = assay: Macrophage infiltration of tumors; type: in vivo, dogs
Excerpt: The amphoteric zwitterion compounds may be employed as active ingredients with other active ingredients, as well as other components and carriers typically used in pharmaceutical compositions; such as, but not limited to: buffers, stabilizers, dyes, antioxidants, dispersing agents, fillers, surfactants, silicones, bulking agents, pigments, salts, human or animal (natural or synthetic) cells and cellular components, antibiotics, drugs, vitamins, amino acids, proteins, serum and various other compounds and combinations thereof in varying amounts.

Herpes Zoster = assay: Example Nine: patient with painful Herpes Zoster; type: in vivo, human; details: 1000 mg i.v. daily
Procedure: A person with painful Herpes Zoster unresponsive to conventional treatment was given 1000 mg intravenously of zwitterionic piperazine daily.

[1] = Example Fourteen: patient with ventricular irritability; type: in vivo, human; details: 3000 mg orally for seven days; baseline 4-6 per minute
Procedure: A person with ventricular irritability, 4-6 premature ventricular contractions per minute (PVCs), was not controlled with Prancetyl, Quinidine, or beta blockade. They were taking no medicines and was started on 3000 mg zwitterionic piperazine orally for seven days. At the end of seven days, the patient had only occasional PVC (1 every 10 minutes).

[2] = Treatment of myasthenia gravis patients with HEPES alone; type: in vivo, human; details: 300 mg/kg to 1000 mg/kg daily
Procedure: To date, more than twenty-five patients have been treated with 300 mg/kg to 1000 mg/kg HEPES daily (no other agents or additional compositions).

[3] = tested on: gram negative staphylococci; assay: Example Twelve: MIC of antibiotics with and without HEPES, staphylococci; type: cell-based; details: agar gel cultures, colony counts of 10^6, with vs without HEPES
Procedure: Routine agar gel cultures are inoculated with beta-hemolytic streptococci and gram […] staphylococci. The cultures were raised to colony counts of 10^6. The mean inhibitory concentration (MIC) with susceptible antibiotics was measured with and without the presence of zwitterionic piperazine (HEPES).

O=S(=O)(O)CCN1CCN(CCO)CC1 [HEPES, N-2 Hydroxyethylpiperazine-N'-2 Ethane Sulfonic Acid]
macrocytic invasion of tumors (cancer tumors; administered to mammals): macrocytic invasion of tumors
macrophage infiltration of cancer tumors (cancer tumors; dogs): macrophage infiltration of cancer tumors in dogs
pain (Herpes Zoster; second day): the pain had diminished, so that other analgesia was not required
lesions (Herpes Zoster; seventh day): the lesions had healed
pain (Herpes Zoster; seventh day): no pain at all
lesions (Herpes Zoster; third day): the lesions had crusted and were clearly healing
premature ventricular contractions (PVC) [1]: 1 every 10 minutes
reduction in disease activity [2]: 25%-50%
decrease in MIC of each antibiotic in culture (in vitro) [3]: more than 10%
